# Experimental data reported in patent US8324161B2, “Leukotriene B4 binding soluble lipocalin receptor from ixodes ricinus” (Universite Libre de Bruxelles, priority 2007, dated 2012).
# B1: LTB4-LIR polypeptide: Leukotriene B4 binding Lipocalin from Ixodes ricinus, amino acid sequence SEQ ID NO: 2, expressed with V5-6×His tag in a baculovirus system (protein, listed as Ixodes ricinus)
# chain: MLRIAVVAALCCFGTGTVSRFQQNATERHYQELNSNLSKYQDAWKSNTENAEYVLAYRTFQDIERTRIRRCVSATLRYKNKKNRTTVHRLRYYNTRDRKWEGHSVLTRFNATPGYTVPNLMLMSSYHNESDEGRLYWTLYSQYGSCNIVRVERNGGCELWVRKGLQDYISSCCWFIYKSYCGNENYQIYNTTYCKRKGPE
# modifications: V5-6×His tag
# Key:
# LTB4-LIR polypeptide = assay: inhibition by eicosanoids of [3H]LTB4 binding to LTB4-LIR polypeptide; parameters: species or system Ixodes ricinus; details: for inhibition of 1 nM [3H]LTB4 binding to LTB4-LIR polypeptide: eicosanoid at a concentration of 10 μM, FIG. 4
# Experimental: (§1) The polypeptide according to the invention was therefore tested for its ability to bind specifically leukotriene B4. The affinity-purified LTB4-LIR polypeptide was tested in binding assays according to a previously described method (Warlow, R. S., and Bernard, C. C. A. (1987). Solubilization and characterization of moderate and high affinity histamine binding sites on human blood mononuclear cells. Mol. Immunol. 24, 27-37).
# (§2) The inhibition by various eicosanoids of [3H]LTB4 binding to LTB4-LIR polypeptide was also examined. […] Next, various concentrations of LTA4, LTB4, LTC4, LTD4, HETE, HPETE, and LXA4 was tested in the competition with [3H]LTB4 binding to LTB4-LIR polypeptide.
# neutrophils = assay: transendothelial migration of neutrophils stimulated by LTB4 through Ea.hy926 endothelial cell layer; format: cell-based, human; details: 2 hours at 37° C.; neutrophils from three volunteers, in triplicate; FIG. 6
# Experimental: The principal LTB4 function is the chemo-attraction of neutrophils to the sub-endothelial spaces of an inflammation site. One step of this process is the diapedesis of the neutrophils through the endothelial cells layer. The chemo-attractant effect of LTB4-LIR6 was tested by using a model of transendothelial migration of neutrophils.
# Ea.hy926 cells, an endothelial cell line derived from the human umbilical vein, were used. These cells closely resemble HUVEC and maintain several characteristics of differentiated endothelium. The cells were allowed to reach confluence in chamber containing DMEM (Cambrex, Vervier, Belgium), supplemented with 10% Fetal Calf Serum, 2 mM L-Glutamine, 100 U/ml penicillin, 100 μg/ml streptomycin and HAT ([…], 0.4 μM aminopterin, 16 μM thymidine). […]
# In the transendothelial assay, the protocol described by Nohgawa et al. was used (Nohgawa M., Sasada M., Maeda A., Asagoe K., Harakawa N., Takano K., Yamamoto K., Okuma M. Leukotriene B4-activated human endothelial cells promote transendothelial neutrophil migration. J Leuc. Biol, 1997 (62): 203-209). […] After 2 hours at 37° C., the upper chambers were removed and cells in lower chambers were counted. […]
# [1] = saturation binding of [3H]LTB4 to affinity-purified LTB4-LIR polypeptide
# Experimental: as §1, §2
molecule,measurement,setting,value
CCCCC/C=C\C\C=C/C=C/C=C/[C@@H](SC[C@H](N)C(=O)NCC(=O)O)[C@@H](O)CCCC(=O)O [LTD4],inhibition of 1 nM [3H]LTB4 binding to LTB4-LIR polypeptide,LTB4-LIR polypeptide,significant competitions
"CCCCC/C=C\C[C@@H](O)/C=C/C=C/C=C\[C@@H](O)CCCC(=O)O [LTB4, leukotriene B4]",inhibition of 1 nM [3H]LTB4 binding to LTB4-LIR polypeptide,LTB4-LIR polypeptide,significant competitions
same,competition with [3H]LTB4 binding to LTB4-LIR polypeptide at various concentrations,"LTB4-LIR polypeptide; various concentrations, FIG. 5",dose-dependent inhibition
CCCCC/C=C\C[C@@H](O)/C=C/C=C\C/C=C\CCCC(=O)O [12(R)-HETE],inhibition of 1 nM [3H]LTB4 binding to LTB4-LIR polypeptide,LTB4-LIR polypeptide,significant competitions
CCCCC/C=C\C\C=C/C=C/C=C/[C@@H](SC[C@H](N)C(=O)O)[C@@H](O)CCCC(=O)O [LTE4],inhibition of 1 nM [3H]LTB4 binding to LTB4-LIR polypeptide,LTB4-LIR polypeptide,significant competitions
B1,effect on the transendothelial migration of neutrophils stimulated by LTB4,neutrophils,significant dose-response effect
same,Kd,"[1]; FIG. 3, read-out: Kd value of specific and saturable binding for [3H]LTB4",400 pM
same,Kd lower than that for human BLT1 membrane receptor,[1]; compared with literature Kd of human BLT1 (Yokomizo et al. 2001),about 5 fold
same,Kd lower than that for human BLT2 membrane receptor,[1]; compared with literature Kd of human BLT2 (Yokomizo et al. 2001),about 60 fold
